Experimental data: patent US20240270741A1 (Cogent Biosciences, Inc., priority 2023, published 2024)

Molecular target: FGFR2 (Homo sapiens, UniProt P21802)
Test: FGFR wild type enzyme assay (HTRF KinEASE-TK), FGFR2
Settings: Enz FGFR2 (nM), FGFR2 wild type enzyme assay

Chain of FGFR2 (P21802 399-821 limits assumed): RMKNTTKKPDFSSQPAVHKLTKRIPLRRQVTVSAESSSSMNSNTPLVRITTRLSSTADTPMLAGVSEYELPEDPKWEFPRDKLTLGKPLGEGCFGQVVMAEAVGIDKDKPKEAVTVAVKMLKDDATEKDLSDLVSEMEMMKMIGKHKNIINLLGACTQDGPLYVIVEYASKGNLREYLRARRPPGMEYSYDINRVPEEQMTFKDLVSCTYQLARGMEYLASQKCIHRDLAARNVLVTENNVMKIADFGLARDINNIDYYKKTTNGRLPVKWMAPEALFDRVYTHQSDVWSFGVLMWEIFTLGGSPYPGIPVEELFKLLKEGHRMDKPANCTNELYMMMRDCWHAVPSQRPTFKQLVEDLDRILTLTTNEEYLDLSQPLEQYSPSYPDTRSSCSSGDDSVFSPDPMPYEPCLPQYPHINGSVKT

Row | IC50 [nM] | Compound
1 | 1 | Cc1c(-c2cc(Sc3ncccc3C#N)c3c(C#N)cnn3c2)cnn1[C@H]1CCCNC1 [Example 434, (S)-4-((3-cyanopyridin-2-yl)thio)-6-(5-methyl-1-(piperidin-3-yl)-1H-pyrazol-4-yl)pyrazolo[1,5-a]pyridine-3-carbonitrile]
2 | 1 | N#Cc1cc(F)ccc1Sc1cc(-c2cnn([C@H]3CCCNC3)c2)cn2ncc(C#N)c12 [Example 435, (S)-4-((2-cyano-4-fluorophenyl)thio)-6-(1-(piperidin-3-yl)-1H-pyrazol-4-yl)pyrazolo[1,5-a]pyridine-3-carbonitrile]
3 | 1 | CC(=O)N1CCC(n2ncc(-c3cc(Sc4ccccc4C#N)c4c(C#N)cnn4c3)c2C)CC1 [Example 436, 6-(1-(1-acetylpiperidin-4-yl)-5-methyl-1H-pyrazol-4-yl)-4-((2-cyanophenyl)thio)pyrazolo [1,5-a]pyridine-3-carbonitrile]
4 | 1 | Cc1c(-c2cc(Sc3ccccc3C#N)c3c(C#N)cnn3c2)cnn1C1CCN(C(=O)C(C)(C)C)CC1 [Example 437, 4-((2-cyanophenyl)thio)-6-(5-methyl-1-(1-pivaloylpiperidin-4-yl)-1H-pyrazol-4-yl)pyrazolo[1,5-a]pyridine-3-carbonitrile]
5 | 1 | Cc1c(-c2cc(Sc3ccc(F)cc3C#N)c3c(C#N)cnn3c2)cnn1[C@H]1CC[C@@](O)(CO)CC1 [Example 438, 4-(2-cyano-4-fluoro-phenyl) sulfanyl-6-[1-[4-hydroxy-4-(hydroxymethyl)cyclohexyl]-5-methylpyrazol-4-yl] pyrazolo[1,5-a]pyridine-3-carbonitrile]
6 | 1 | Cc1c(-c2cc(Sc3ccc(F)cc3C#N)c3c(C#N)cnn3c2)cnn1[C@@H]1CNC(C)(C)C1 [Example 439, (S)-4-((2-cyano-4-fluorophenyl)thio)-6-(1-(5,5-dimethylpyrrolidin-3-yl)-5-methyl-1H-pyrazol-4-yl)pyrazolo[1,5-a]pyridine-3-carbonitrile]
7 | 2 | Cc1c(-c2cc(Sc3ccc(F)cc3C#N)c3c(C#N)cnn3c2)cnn1[C@H]1CNC(C)(C)C1 [Example 440, (R)-4-((2-cyano-4-fluorophenyl)thio)-6-(1-(5,5-dimethylpyrrolidin-3-yl)-5-methyl-1H-pyrazol-4-yl)pyrazolo[1,5-a]pyridine-3-carbonitrile]
8 | 3 | Cc1nn([C@H]2CC[C@H](O)CC2)cc1-c1cc(Sc2ccccc2C#N)c2c(C#N)cnn2c1 [Example 441, 4-((2-cyanophenyl)thio)-6-(1-((1r,4r)-4-hydroxycyclohexyl)-3-methyl-1H-pyrazol-4-yl)pyrazolo[1,5-a]pyridine-3-carbonitrile]
9 | 8 | Cc1nn([C@H]2CC[C@H](O)CC2)cc1-c1cc(Sc2ncccc2F)c2c(C#N)cnn2c1 [Example 442, 4-((3-fluoropyridin-2-yl)thio)-6-(1-((1r,4r)-4-hydroxycyclohexyl)-3-methyl-1H-pyrazol-4-yl)pyrazolo[1,5-a]pyridine-3-carbonitrile]
10 | 4 | Cc1nn([C@H]2CC[C@H](O)CC2)cc1-c1cc(Sc2ccc(F)cc2C#N)c2c(C#N)cnn2c1 [Example 443, 4-((2-cyano-4-fluorophenyl)thio)-6-(1-((1r,4r)-4-hydroxycyclohexyl)-3-methyl-1H-pyrazol-4-yl)pyrazolo[1,5-a]pyridine-3-carbonitrile]
11 | 0.3 | CC(=O)N1CCC(n2cc(-c3cc(Sc4ccccc4C#N)c4c(C#N)cnn4c3)cn2)CC1 [Example 444, 6-(1-(1-acetylpiperidin-4-yl)-1H-pyrazol-4-yl)-4-((2-cyanophenyl)thio)pyrazolo [1,5-a]pyridine-3-carbonitrile]
12 | 1 | N#Cc1cc(F)ccc1Sc1cc(-c2cnn(C3CCN(C(=O)CO)CC3)c2)cn2ncc(C#N)c12 [Example 445, 4-((2-cyano-4-fluorophenyl)thio)-6-(1-(1-(2-hydroxyacetyl)piperidin-4-yl)-1H-pyrazol-4-yl)pyrazolo[1,5-a]pyridine-3-carbonitrile]
13 | 0.5 | N#Cc1ccccc1Sc1cc(-c2cnn(C3CCN(C(=O)CO)CC3)c2)cn2ncc(C#N)c12 [Example 446, 4-((2-cyanophenyl)thio)-6-(1-(1-(2-hydroxyacetyl)piperidin-4-yl)-1H-pyrazol-4-yl)pyrazolo[1,5-a]pyridine-3-carbonitrile]
14 | 0.4 | C[C@@H](O)C(=O)N1CCC(n2cc(-c3cc(Sc4ccccc4C#N)c4c(C#N)cnn4c3)cn2)CC1 [Example 447]
15 | 0.3 | C[C@H](O)C(=O)N1CCC(n2cc(-c3cc(Sc4ccccc4C#N)c4c(C#N)cnn4c3)cn2)CC1 [Example 448, (S)-4-((2-cyanophenyl)thio)-6-(1-(1-(2-hydroxypropanoyl)piperidin-4-yl)-1H-pyrazol-4-yl)pyrazolo[1,5-a]pyridine-3-carbonitrile]
16 | 2 | CC(C)n1cc(-c2cc(Sc3ncccc3F)c3c(C#N)cnn3c2)cn1 [Example 449, 4-((3-fluoropyridin-2-yl)thio)-6-(1-isopropyl-1H-pyrazol-4-yl)pyrazolo[1,5-a]pyridine-3-carbonitrile]

Row | IC50 [nM] | Compound
17 | 1 | CC(=O)N1CC[C@H](n2cc(-c3cc(Sc4ncccc4F)c4c(C#N)cnn4c3)cn2)C1 [Example 450, (S)-6-(1-(1-acetylpyrrolidin-3-yl)-1H-pyrazol-4-yl)-4-((3-fluoropyridin-2-yl)thio)pyrazolo[1,5-a]pyridine-3-carbonitrile]
18 | 1 | N#Cc1cnn2cc(-c3cnn([C@H]4CCN(C(=O)CO)C4)c3)cc(Sc3ncccc3F)c12 [Example 451, (S)-4-((3-fluoropyridin-2-yl)thio)-6-(1-(1-(2-hydroxyacetyl)pyrrolidin-3-yl)-1H-pyrazol-4-yl)pyrazolo[1,5-a]pyridine-3-carbonitrile]
19 | 0.6 | CC(C)n1cc(-c2cc(Sc3ccccc3C#N)c3c(C#N)cnn3c2)cn1 [Example 452, 4-((2-cyanophenyl)thio)-6-(1-isopropyl-1H-pyrazol-4-yl)pyrazolo[1,5-a]pyridine-3-carbonitrile]
20 | 0.4 | CC(=O)N1CC[C@H](n2cc(-c3cc(Sc4ccccc4C#N)c4c(C#N)cnn4c3)cn2)C1 [Example 453, (S)-6-(1-(1-acetylpyrrolidin-3-yl)-1H-pyrazol-4-yl)-4-((2-cyanophenyl)thio)pyrazolo [1,5-a]pyridine-3-carbonitrile]
21 | 12 | CC(=O)N1CCC(n2nc(C)c(-c3cc(Sc4ncccc4F)c4c(C#N)cnn4c3)c2F)CC1 [Example 454, 6-(1-(1-acetylpiperidin-4-yl)-5-fluoro-3-methyl-1H-pyrazol-4-yl)-4-((3-fluoropyridin-2-yl)thio)pyrazolo[1,5-a]pyridine-3-carbonitrile]
22 | 2 | Cc1noc(N2CCC[C@H](n3ncc(-c4cc(Sc5ccc(F)cc5C#N)c5c(C#N)cnn5c4)c3C)C2)n1 [Example 455, 4-(2-cyano-4-fluoro-phenyl)sulfanyl-6-[5-methyl-1-[(3S)-1-(3-methyl-1,2,4-oxadiazol-5-yl)-3-piperidyl]pyrazol-4-yl]pyrazolo[1,5-a]pyridine-3-carbonitrile]
23 | 8 | Cc1c(-c2cc(Sc3ccc(F)cc3C#N)c3c(C#N)cnn3c2)cnn1[C@H]1CCCN(c2ccccn2)C1 [Example 456, (S)-4-((2-cyano-4-fluorophenyl)thio)-6-(5-methyl-1-(1-(pyridin-2-yl)piperidin-3-yl)-1H-pyrazol-4-yl)pyrazolo[1,5-a]pyridine-3-carbonitrile]
24 | 13 | N#Cc1cnn2cc(-c3cnn([C@H]4CCCNC4)n3)cc(Sc3ncccc3F)c12 [Example 457, 4-[(3-fluoro-2-pyridyl)sulfanyl]-6-[2-[(3S)-3-piperidyl]triazol-4-yl]pyrazolo[1,5-a]pyridine-3-carbonitrile]
25 | 1 | CC(=O)N1CC[C@H](n2cc(-c3cc(Sc4ccccc4C#N)c4c(C#N)cnn4c3)cn2)[C@@H](O)C1 [Example 458, 6-(1-((3S,4S)-1-acetyl-3-hydroxypiperidin-4-yl)-1H-pyrazol-4-yl)-4-((2-cyanophenyl)thio)pyrazolo [1,5-a]pyridine-3-carbonitrile]
26 | 0.4 | CC(=O)N1CC[C@@H](n2cc(-c3cc(Sc4ccccc4C#N)c4c(C#N)cnn4c3)cn2)[C@H](O)C1 [Example 459, 6-(1-((3R,4R)-1-acetyl-3-hydroxypiperidin-4-yl)-1H-pyrazol-4-yl)-4-((2-cyanophenyl)thio)pyrazolo [1,5-a]pyridine-3-carbonitrile]
27 | 6 | N#Cc1cc(F)ccc1Sc1cc(-c2cn([C@H]3CCCNC3)nn2)cn2ncc(C#N)c12 [Example 460, (S)-4-((2-cyano-4-fluorophenyl)thio)-6-(1-(piperidin-3-yl)-1H-1,2,3-triazol-4-yl)pyrazolo[1,5-a]pyridine-3-carbonitrile]
28 | 4 | N#Cc1ccccc1Sc1cc(-c2cn([C@H]3CCCNC3)nn2)cn2ncc(C#N)c12 [Example 461, (S)-4-((2-cyanophenyl)thio)-6-(1-(piperidin-3-yl)-1H-1,2,3-triazol-4-yl)pyrazolo[1,5-a]pyridine-3-carbonitrile]
29 | 19 | N#Cc1cc(F)ccc1Sc1cc(-c2cnn([C@H]3CCCNC3)n2)cn2ncc(C#N)c12 [Example 462, (S)-4-((2-cyano-4-fluorophenyl)thio)-6-(2-(piperidin-3-yl)-2H-1,2,3-triazol-4-yl)pyrazolo[1,5-a]pyridine-3-carbonitrile]
30 | 6 | N#Cc1ccccc1Sc1cc(-c2cnn([C@H]3CCCNC3)n2)cn2ncc(C#N)c12 [Example 463, (S)-4-((2-cyanophenyl)thio)-6-(2-(piperidin-3-yl)-2H-1,2,3-triazol-4-yl)pyrazolo[1,5-a]pyridine-3-carbonitrile]
31 | 5 | N#Cc1ccccc1Sc1cc(-c2cn([C@H]3CCNC3)nn2)cn2ncc(C#N)c12 [Example 464, (S)-4-((2-cyanophenyl)thio)-6-(1-(pyrrolidin-3-yl)-1H-1,2,3-triazol-4-yl)pyrazolo[1,5-a]pyridine-3-carbonitrile]
32 | 11 | N#Cc1cnn2cc(-c3cn([C@H]4CCNC4)nn3)cc(Sc3ncccc3F)c12 [Example 465, (S)-4-((3-fluoropyridin-2-yl)thio)-6-(1-(pyrrolidin-3-yl)-1H-1,2,3-triazol-4-yl)pyrazolo[1,5-a]pyridine-3-carbonitrile]
